Results published in patent US7479493B2, “Substituted benzyl amine compounds” (Janssen Pharmaceutica N.V., priority 2006, dated 2009).

Assays:
cloned human H3 receptor = cloned human H3 receptor (Homo sapiens, UniProt Q9Y5N1); assay: H3 Receptor Binding; settings: cloned human H3 receptor stably expressed in SK-N-MC cells
human SERT = biological target: T1, human SERT (Homo sapiens, UniProt P31645); assay: Human SERT (3H-citalopram binding, HEK293 membranes); settings: HEK293 membranes expressing the human SERT, rt 1 h
T1 construct: expressed in transfected cells; host or cells: HEK293 membranes
T1 sequence (P31645 whole entry): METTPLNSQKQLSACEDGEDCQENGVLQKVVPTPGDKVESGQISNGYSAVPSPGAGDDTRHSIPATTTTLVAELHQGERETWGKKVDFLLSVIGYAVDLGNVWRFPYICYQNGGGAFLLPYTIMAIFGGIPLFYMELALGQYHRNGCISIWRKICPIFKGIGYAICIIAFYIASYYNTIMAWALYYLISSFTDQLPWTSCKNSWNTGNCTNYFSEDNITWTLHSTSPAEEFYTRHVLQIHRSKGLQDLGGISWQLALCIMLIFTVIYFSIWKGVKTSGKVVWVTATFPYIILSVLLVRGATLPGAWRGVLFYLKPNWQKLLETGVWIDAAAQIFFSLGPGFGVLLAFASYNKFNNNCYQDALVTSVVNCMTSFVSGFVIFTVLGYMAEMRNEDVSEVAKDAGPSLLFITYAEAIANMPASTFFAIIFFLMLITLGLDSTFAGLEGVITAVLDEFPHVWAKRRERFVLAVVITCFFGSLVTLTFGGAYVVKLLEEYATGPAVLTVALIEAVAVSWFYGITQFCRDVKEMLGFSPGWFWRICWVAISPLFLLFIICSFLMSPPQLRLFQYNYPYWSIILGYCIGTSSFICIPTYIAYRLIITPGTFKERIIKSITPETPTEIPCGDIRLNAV
Method: Homogenized HEK293 (Human Embryonic Kidney) membranes expressing the human SERT were incubated with ^3H-citalopram (SERT) at rt for 1 h in 50 mM Tris, 120 mM NaCl, 5 mM KCl (pH 7.4). Nonspecific binding was determined in the presence of 10 μM fluoxetine for the SERT. The membranes were washed and the radioactivity was counted as above.

Rat SERT = Rat SERT (Rattus norvegicus, UniProt P31652); assay: biochemical
Sequence of Rat SERT (P31652 whole entry): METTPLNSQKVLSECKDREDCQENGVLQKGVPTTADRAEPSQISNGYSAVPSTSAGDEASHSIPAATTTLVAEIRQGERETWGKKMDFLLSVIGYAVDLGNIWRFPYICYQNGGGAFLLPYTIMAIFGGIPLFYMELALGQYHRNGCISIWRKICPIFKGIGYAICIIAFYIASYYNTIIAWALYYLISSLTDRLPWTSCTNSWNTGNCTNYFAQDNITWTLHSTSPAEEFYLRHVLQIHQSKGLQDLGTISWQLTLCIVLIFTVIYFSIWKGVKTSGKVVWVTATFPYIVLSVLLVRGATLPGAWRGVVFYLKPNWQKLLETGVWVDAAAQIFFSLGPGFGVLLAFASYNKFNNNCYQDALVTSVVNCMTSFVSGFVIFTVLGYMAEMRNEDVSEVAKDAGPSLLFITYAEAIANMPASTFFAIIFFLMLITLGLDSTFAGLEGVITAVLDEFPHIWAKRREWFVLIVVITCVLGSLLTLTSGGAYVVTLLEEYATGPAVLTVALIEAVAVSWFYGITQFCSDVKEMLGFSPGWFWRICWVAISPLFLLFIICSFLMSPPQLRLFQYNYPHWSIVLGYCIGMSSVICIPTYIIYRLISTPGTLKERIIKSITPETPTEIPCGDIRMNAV
Method: The supernatant was removed and re-centrifuged at 15,000 rpm for 30 min. […] Membranes were incubated with 0.6 nM [^3H]-Citalopram plus/minus test compounds for 60 min at 25° C. and harvested by rapid filtration over GF/C glass fiber filters (pretreated with 0.3% polyethylenimine) followed by four washes with ice-cold buffer. Nonspecific binding was defined in the presence of 100 μM fluoxetine.

human H3 receptor = human H3 receptor (Homo sapiens, UniProt Q9Y5N1); assay: Cyclic AMP Accumulation (reporter gene, SK-N-MC cells)
Sequence of human H3 receptor (Q9Y5N1 whole entry): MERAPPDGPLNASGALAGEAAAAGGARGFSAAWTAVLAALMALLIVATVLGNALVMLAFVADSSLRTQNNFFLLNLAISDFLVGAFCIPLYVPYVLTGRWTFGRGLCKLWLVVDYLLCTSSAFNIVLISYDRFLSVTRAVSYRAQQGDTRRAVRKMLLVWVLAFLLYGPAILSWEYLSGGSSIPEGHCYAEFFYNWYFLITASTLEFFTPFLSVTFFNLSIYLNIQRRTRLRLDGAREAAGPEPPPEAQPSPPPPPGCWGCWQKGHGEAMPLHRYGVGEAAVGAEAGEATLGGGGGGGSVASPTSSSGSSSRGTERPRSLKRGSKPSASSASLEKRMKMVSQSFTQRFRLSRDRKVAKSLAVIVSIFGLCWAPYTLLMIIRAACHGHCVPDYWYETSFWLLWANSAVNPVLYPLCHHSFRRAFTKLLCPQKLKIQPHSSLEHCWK
Method: Sublines of SK-N-MC cells were created that expressed a reporter construct and the human H3 receptor. The reporter gene (β-galactosidase) is under the control of multiple cyclic AMP responsive elements. In 96-well plates, histamine was added directly to the cell media followed 5 min later by an addition of forskolin (5 μM final concentration). When appropriate, antagonists were added 10 min prior to agonist addition. After a 6-h incubation at 37° C., the media was aspirated and the cells washed with 200 μL of phosphate-buffered saline followed by a second aspiration. […] Color was developed using 25 μL of 1 mg/mL substrate solution (chlorophenolred β-D galactopyranoside; Roche Molecular Biochemicals, Indianapolis, Ind.).

Sequence of cloned human H3 receptor (Q9Y5N1 whole entry): as above

Row | Ki (cloned human H3 receptor) [nM] | Ki (Rat SERT) [nM] | SMILES | Ki (human SERT) [nM] | Kb (human H3 receptor) [nM]
1 | 1 | 160 | CNCc1cc(C(=O)N2CCN(C(C)C)CC2)ccc1Oc1cccnc1 [Example 9, (4-Isopropyl-piperazin-1-yl)-[3-methylaminomethyl-4-(pyridin-3-yloxy)-phenyl]-methanone] | 420 | –
2 | 27 | 10 | CNCc1cc(N2CCCN(C(C)C)CC2)ccc1Oc1ccc(Cl)c(Cl)c1 [Example 55, [2-(3,4-Dichloro-phenoxy)-5-(4-isopropyl-[1,4]diazepan-1-yl)-benzyl]-methyl-amine] | – | –
3 | 25 | 16 | CNCc1cc(N2CCCN(C3CC3)CC2)ccc1Oc1ccc(Cl)c(Cl)c1 [Example 56, [5-(4-Cyclopropyl-[1,4]diazepan-1-yl)-2-(3,4-dichloro-phenoxy)-benzyl]-methyl-amine] | – | –
4 | 37 | 4 | CNCc1cc(N2CCN(C3CC3)CCC2=O)ccc1Oc1ccc(SC)cc1 [Example 57, 1-Cyclopropyl-4-[3-methylaminomethyl-4-(4-methylsulfanyl-phenoxy)-phenyl]-[1,4]diazepan-5-one] | – | –
5 | 300 | 6 | CNCc1cc(N2CC[C@H](N(C)C)C2)ccc1Oc1ccc(SC)cc1 [Example 58, (S)-Dimethyl-{1-[3-methylaminomethyl-4-(4-methylsulfanyl-phenoxy)-phenyl]-pyrrolidin-3-yl}-amine] | – | –
6 | 70 | 4 | CNCc1cc(C(=O)N2CCN(C3CC3)CC2)ccc1OCc1ccc(Cl)c(Cl)c1 [Example 59, (4-Cyclopropyl-piperazin-1-yl)-[4-(3,4-dichloro-benzyloxy)-3-methylaminomethyl-phenyl]-methanone] | – | –
7 | 2 | 3 | CSc1ccc(Oc2ccc(CN3CCN(C(C)C)CC3)cc2CNC2CC2)cc1 [Example 60, Cyclopropyl-[5-(4-isopropyl-piperazin-1-ylmethyl)-2-(4-methylsulfanyl-phenoxy)-benzyl]-amine] | – | –
8 | 2 | 0.8 | CNCc1cc(CN2CCN(C(C)C)CC2)ccc1Oc1ccc(SC)cc1 [Example 61, [5-(4-Isopropyl-piperazin-1-ylmethyl)-2-(4-methylsulfanyl-phenoxy)-benzyl]-methyl-amine] | – | –
9 | 21 | 1 | CSc1ccc(Oc2ccc(CN3CCN(C(C)C)CC3)cc2CN(C)C)cc1 [Example 62, [5-(4-Isopropyl-piperazin-1-ylmethyl)-2-(4-methylsulfanyl-phenoxy)-benzyl]-dimethyl-amine] | – | –
10 | 0.9 | 6 | CCNCc1cc(CN2CCN(C(C)C)CC2)ccc1Oc1ccc(SC)cc1 [Example 63, Ethyl-[5-(4-isopropyl-piperazin-1-ylmethyl)-2-(4-methylsulfanyl-phenoxy)-benzyl]-amine] | – | –
11 | 0.5 | 7 | CSc1ccc(Oc2ccc(CN3CCN(C(C)C)CC3)cc2CNC(C)C)cc1 [Example 64, Isopropyl-[5-(4-isopropyl-piperazin-1-ylmethyl)-2-(4-methylsulfanyl-phenoxy)-benzyl]-amine] | – | –
12 | 4 | 18 | CSc1ccc(Oc2ccc(CN3CCN(C(C)C)CC3)cc2CN)cc1 [Example 65, 5-(4-Isopropyl-piperazin-1-ylmethyl)-2-(4-methylsulfanyl-phenoxy)-benzylamine] | – | –
13 | 2500 | 6 | CNCc1cc(CN2CCN(C(C)C)C(=O)C2)ccc1Oc1ccc(Cl)c(Cl)c1 [Example 66, 4-[4-(3,4-Dichloro-phenoxy)-3-methylaminomethyl-benzyl]-1-isopropyl-piperazin-2-one] | – | –
14 | 6 | 4 | CNCc1cc(CN2CCN(C(C)C)CC2=O)ccc1Oc1ccc(Cl)c(Cl)c1 [Example 67, 1-[4-(3,4-Dichloro-phenoxy)-3-methylaminomethyl-benzyl]-4-isopropyl-piperazin-2-one] | – | –
15 | 110 | 4 | CNCc1cc(CN2CCN(C(C)C)CCC2=O)ccc1Oc1ccc(Cl)c(Cl)c1 [Example 69, 4-[4-(3,4-Dichloro-phenoxy)-3-methylaminomethyl-benzyl]-1-isopropyl-[1,4]diazepan-5-one] | – | –
16 | 19 | 5 | CNCc1cc(CN2CCN(C3CCC3)CCC2=O)ccc1Oc1ccc(Cl)c(Cl)c1 [Example 70, 1-Cyclobutyl-4-[4-(3,4-dichloro-phenoxy)-3-methylaminomethyl-benzyl]-[1,4]diazepan-5-one] | – | –
17 | 6 | 2 | CNCc1cc(C(=O)NCCN2CCCC2)ccc1Oc1cccc(Cl)c1 [Example 71, 4-(3-Chloro-phenoxy)-3-methylaminomethyl-N-(2-pyrrolidin-1-yl-ethyl)-benzamide] | – | –
18 | 4 | 65 | CNCc1cc(C(=O)N2CCN(C3CCC3)CC2)ccc1Oc1cccc(Cl)c1 [Example 72, [4-(3-Chloro-phenoxy)-3-methylaminomethyl-phenyl]-(4-cyclobutyl-piperazin-1-yl)-methanone] | – | –
19 | 140 | 500 | Cc1ccc(Oc2cc(C(=O)N3CCN(C4CC4)CC3)ccc2CN(C)C)c(C)n1 [Example 80, (4-Cyclopropyl-piperazin-1-yl)-[4-dimethylaminomethyl-3-(2,6-dimethyl-pyridin-3-yloxy)-phenyl]-methanone] | – | –
20 | 67 | 8000 | CN(C)Cc1ccc(C(=O)N2CCN(C3CC3)CC2)cc1OCc1ccccc1 [Example 81, (3-Benzyloxy-4-dimethylaminomethyl-phenyl)-(4-cyclopropyl-piperazin-1-yl)-methanone] | – | –

Row | SMILES | Ki (cloned human H3 receptor) [nM] | Ki (Rat SERT) [nM] | Ki (human SERT) [nM] | Kb (human H3 receptor) [nM]
21 | CC(C)N1CCN(C(=O)c2ccc(CNC3CC3)c(Oc3cccnc3)c2)CC1 [Example 30, [4-Cyclopropylaminomethyl-3-(pyridin-3-yloxy)-phenyl]-(4-isopropyl-piperazin-1-yl)-methanone] | 3 | 4000 | – | 0.794
22 | O=C(c1ccc(CNC2CC2)c(Oc2cccnc2)c1)N1CCN(C2CC2)CC1 [Example 31, [4-Cyclopropylaminomethyl-3-(pyridin-3-yloxy)-phenyl]-(4-cyclopropyl-piperazin-1-yl)-methanone] | 10 | 1000 | – | 1.58
23 | CC(C)N1CCN(C(=O)c2ccc(CN3CCCCC3)c(Oc3cccnc3)c2)CC1 [Example 33, (4-Isopropyl-piperazin-1-yl)-[4-piperidin-1-ylmethyl-3-(pyridin-3-yloxy)-phenyl]-methanone] | 2 | – | – | 0.316
24 | O=C(c1ccc(CN2CCCCC2)c(Oc2cccnc2)c1)N1CCN(C2CC2)CC1 [Example 34, (4-Cyclopropyl-piperazin-1-yl)-[4-piperidin-1-ylmethyl-3-(pyridin-3-yloxy)-phenyl]-methanone] | 3 | – | – | 1.26
25 | CN(C)C1CCN(C(=O)c2ccc(CN3CCCCC3)c(Oc3cccnc3)c2)C1 (centres unmarked) [Example 35, (3-Dimethylamino-pyrrolidin-1-yl)-[4-piperidin-1-ylmethyl-3-(pyridin-3-yloxy)-phenyl]-methanone] | 7 | – | – | 2.51
26 | CNCc1ccc(C(=O)N2CCN(C(C)C)CC2)cc1Oc1ccc(Cl)cc1 [Example 36, [3-(4-Chloro-phenoxy)-4-methylaminomethyl-phenyl]-(4-isopropyl-piperazin-1-yl)-methanone] | 4 | 28 | – | 6.31
27 | CNCc1cc(N2CCN(C(C)C)CCC2=O)ccc1Oc1ccc(SC)cc1 [Example 54, 1-Isopropyl-4-[3-methylaminomethyl-4-(4-methylsulfanyl-phenoxy)-phenyl]-[1,4]diazepan-5-one] | 3 | 0.5 | – | 2
28 | CNCc1cc(CN2CCC(=O)N(C(C)C)CC2)ccc1Oc1ccc(Cl)c(Cl)c1 [Example 68, 1-[4-(3,4-Dichloro-phenoxy)-3-methylaminomethyl-benzyl]-4-isopropyl-[1,4]diazepan-5-one] | 6300 | 7 | – | –
29 | CNCc1cc(N2CCN(C(C)C)CCC2=O)ccc1Oc1ccc(Cl)c(Cl)c1 [Example 73, 4-[4-(3,4-Dichloro-phenoxy)-3-methylaminomethyl-phenyl]-1-isopropyl-[1,4]diazepan-5-one] | 7.7 | 12 | 16 | 4.47
